The EC50 is the midpoint of the concentration-response curve. A low value points to an effect from little substance.

The subject of this experiment is M17-TAU P301L cells. In words: TAU cytotoxicity assay: LDH leakage of retinoic acid incubated M17-TAU P301L cells. The class given is cell-based, human. Particulars: Homo sapiens, 168 h, reduction of LDH activity of retinoic acid incubated M17-TAU P301L cells, 7 days. A digest of the protocol: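 M17 neuroblastoma cells stably expressing human TAU P301L, seeded at 2500 cells/cm2 in Optimem with 1% FCS, then given 2.5 μM retinoic acid (stock before 1:1 addition) and grown 7 days at 37 °C. Cytotoxicity read as LDH leaked into medium; EC50 derived from these measurements.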
For orientation: LDH leaks from cells whose membrane has failed.
`CC(c1ccccc1)N1CCC(C(=O)NCCc2c[nH]c3ccc(Cl)cc23)C1=O` (single isomer, unassigned) [D156 Fraction A, N-(2-(5-chloro-1H-indol-3-yl)ethyl)-2-oxo-1-(1-phenylethyl)pyrrolidine-3-carboxamide] yielded an EC50 of 819 nM.

In the case of `O=C(NCCc1c[nH]c2ccc(Cl)cc12)C1CCN(CC2CCCCC2)C1=O` (centres unmarked) [Example D164, N-(2-(5-chloro-1H-indol-3-yl)ethyl)-1-(cyclohexylmethyl)-2-oxopyrrolidine-3-carboxamide], the EC50 was determined as 320 nM. As to `O=C(NCCc1c[nH]c2ccc(Cl)cc12)c1cc(C2CCCCC2)on1` [Example D13, N-(2-(5-chloro-1H-indol-3-yl)ethyl)-5-cyclohexylisoxazole-3-carboxamide], a half-maximal response (EC50) required 18 nM.

`Cc1cccc(Cc2nc(C(=O)NCCc3c[nH]c4ccc(Cl)cc34)no2)c1` [Example D184, N-(2-(5-chloro-1H-indol-3-yl)ethyl)-5-(3-methylbenzyl)-1,2,4-oxadiazole-3-carboxamide] returned an EC50 of 26 nM. For `CCc1cccc(N2CCC(C(=O)NCCc3c[nH]c4ccc(Cl)cc34)C2=O)c1` (centres unmarked) [Example D82, N-(2-(5-chloro-1H-indol-3-yl)ethyl)-1-(3-ethylphenyl)-2-oxopyrrolidine-3-carboxamide] the value was 939 nM. For `O=C(NCCc1c[nH]c2ccc(Cl)cc12)c1cc(Cc2cccc(F)c2F)on1` [Example D130, N-(2-(5-chloro-1H-indol-3-yl)ethyl)-5-(2,3-difluorobenzyl)isoxazole-3-carboxamide] the value was 20 nM. The figure for `Cc1nc(C(=O)NCCc2c[nH]c3ccc(Cl)cc23)c(C)o1` [Example D116, N-(2-(5-chloro-1H-indol-3-yl)ethyl)-2,5-dimethyloxazole-4-carboxamide] is 306 nM. As for `O=C(NCCc1c[nH]c2ccc(Cl)cc12)c1noc(Cc2ccc(F)cc2F)n1` [Example D189, N-(2-(5-chloro-1H-indol-3-yl)ethyl)-5-(2,4-difluorobenzyl)-1,2,4-oxadiazole-3-carboxamide], the EC50 stood at 15 nM. Compound `O=C(NCCc1c[nH]c2ccc(Cl)cc12)c1cc(Cc2ccncc2)on1` [Example D41, N-(2-(5-chloro-1H-indol-3-yl)ethyl)-5-(pyridin-4-ylmethyl)isoxazole-3-carboxamide] displayed an EC50 of 91 nM. The figure for `O=C(NCCc1c[nH]c2ccc(Cl)cc12)C1=N[C@@H](Cc2ccccc2)CO1` [Example D80, (S)-4-benzyl-N-(2-(5-chloro-1H-indol-3-yl)ethyl)-4,5-dihydrooxazole-2-carboxamide] is 915 nM.

The compound `O=C(NCCc1c[nH]c2ccc(Cl)cc12)C1CCN(c2ccc(C(F)(F)F)cc2)C1=O` (centres unmarked) [Example D132, N-(2-(5-chloro-1H-indol-3-yl)ethyl)-2-oxo-1-(4-(trifluoromethyl)phenyl)pyrrolidine-3-carboxamide] registered an EC50 of 57 nM.

Compound `O=C(NCCc1c[nH]c2ccc(Cl)cc12)c1ccnn1-c1ccccc1` [Example D117, N-(2-(5-chloro-1H-indol-3-yl)ethyl)-1-phenyl-1H-pyrazole-5-carboxamide] yielded an EC50 of 979 nM.

Turning to `O=C(NCCc1c[nH]c2ccc(Cl)cc12)c1cc(C(=O)c2cc(F)ccc2F)on1` [Example D194, N-(2-(5-chloro-1H-indol-3-yl)ethyl)-5-(2,5-difluorobenzoyl)isoxazole-3-carboxamide], the EC50 was 113 nM.

Consider `O=C(NCCc1c[nH]c2ccc(Cl)cc12)C1CCN(c2ccccc2)C1=O` (centres unmarked) [Example D64, N-(2-(5-chloro-1H-indol-3-yl)ethyl)-2-oxo-1-phenylpyrrolidine-3-carboxamide], for which a half-maximal effect (EC50) was put at 313 nM. The compound `O=C(NCCc1c[nH]c2ccc(Cl)cc12)c1cc(Cc2ccc(C(F)(F)F)cc2)on1` [Example D9, N-(2-(5-chloro-1H-indol-3-yl)ethyl)-5-(4-(trifluoromethyl)benzyl)isoxazole-3-carboxamide] yielded an EC50 of 16 nM. The figure for `CCOCC1CC(C(=O)NCCc2c[nH]c3ccc(Cl)cc23)=NO1` (centres unmarked) [Example D216, N-(2-(5-chloro-1H-indol-3-yl)ethyl)-5-(ethoxymethyl)-4,5-dihydroisoxazole-3-carboxamide] is 77 nM. For the compound `Cc1ccc(N2CCC(C(=O)NCCc3c[nH]c4ccc(Cl)cc34)C2=O)cc1F` (centres unmarked) [Example D152, N-(2-(5-chloro-1H-indol-3-yl)ethyl)-1-(3-fluoro-4-methylphenyl)-2-oxopyrrolidine-3-carboxamide], the EC50 came out at 99 nM. The figure for `O=C(NCCc1c[nH]c2ccc(Cl)cc12)c1ncc(-c2ccccc2)o1` [Example D53, N-(2-(5-chloro-1H-indol-3-yl)ethyl)-5-phenyloxazole-2-carboxamide] is 171 nM; for `Cc1ccc(-c2nc(C)c(C(=O)NCCc3c[nH]c4ccc(F)cc34)s2)cc1` [Example D37, N-(2-(5-fluoro-1H-indol-3-yl)ethyl)-4-methyl-2-p-tolylthiazole-5-carboxamide] it is 61 nM; for `N#Cc1ccc2[nH]cc(CCNC(=O)c3cc(Cc4cc(F)ccc4F)on3)c2c1` [Example D137, N-(2-(5-cyano-1H-indol-3-yl)ethyl)-5-(2,5-difluorobenzyl)isoxazole-3-carboxamide] it is 32 nM. The figure for `CCc1ccccc1N1CCC(C(=O)NCCc2c[nH]c3ccc(Cl)cc23)C1=O` (centres unmarked) [Example D157, N-(2-(5-chloro-1H-indol-3-yl)ethyl)-1-(2-ethylphenyl)-2-oxopyrrolidine-3-carboxamide] is 1210 nM.

In turn, `O=C(NCCc1c[nH]c2ccc(Cl)cc12)c1cc(C2CCCC2)on1` [Example D2, N-(2-(5-chloro-1H-indol-3-yl)ethyl)-5-cyclopentylisoxazole-3-carboxamide] had an EC50 of 3 nM. The figure for `Cc1ccc(Cc2nc(C(=O)NCCc3c[nH]c4ccc(Cl)cc34)no2)cc1` [Example D181, N-(2-(5-chloro-1H-indol-3-yl)ethyl)-5-(4-methylbenzyl)-1,2,4-oxadiazole-3-carboxamide] is 48 nM.

`O=C(NCCc1c[nH]c2ccc(Cl)cc12)C1CCN(C2CCCCC2)C1=O` (centres unmarked) [Example D76, N-(2-(5-chloro-1H-indol-3-yl)ethyl)-1-cyclohexyl-2-oxopyrrolidine-3-carboxamide]: the EC50 was 571 nM. Turning to `COc1ccc(-c2cc(C(=O)NCCc3c[nH]c4ccc(Cl)cc34)no2)cc1` [Example D49, N-(2-(5-chloro-1H-indol-3-yl)ethyl)-5-(4-methoxyphenyl)isoxazole-3-carboxamide], it took 140 nM to reach a half-maximal effect (EC50). The figure for `O=C(NCCc1c[nH]c2ccc(Cl)cc12)c1cc(-c2ccc(Cl)cc2)on1` [Example D56, N-(2-(5-chloro-1H-indol-3-yl)ethyl)-5-(4-chlorophenyl)isoxazole-3-carboxamide] is 190 nM. The compound `COc1ccc(Cc2nc(C(=O)NCCc3c[nH]c4ccc(Cl)cc34)no2)cc1OC` [Example D178, N-(2-(5-chloro-1H-indol-3-yl)ethyl)-5-(3,4-dimethoxybenzyl)-1,2,4-oxadiazole-3-carboxamide] returned an EC50 of 125 nM. The figure for `COc1cccc(Cc2cc(C(=O)NCCc3c[nH]c4ccc(Cl)cc34)no2)c1` [Example D1, N-(2-(5-chloro-1H-indol-3-yl)ethyl)-5-(3-methoxybenzyl)isoxazole-3-carboxamide] is 2 nM. For `Cc1ccc2[nH]cc(CCNC(=O)c3cc(Cc4cccc(F)c4)on3)c2c1` [Example D14, 5-(3-fluorobenzyl)-N-(2-(5-methyl-1H-indol-3-yl)ethyl)isoxazole-3-carboxamide] the value was 19 nM. The compound `O=C(NCCc1c[nH]c2ccc(Cl)cc12)C1=NOC(Cc2ccccc2)C1` (centres unmarked) [Example D43, 5-benzyl-N-(2-(5-chloro-1H-indol-3-yl)ethyl)-4,5-dihydroisoxazole-3-carboxamide] gave an EC50 of 94 nM. The figure for `O=C(NCCc1c[nH]c2ccc(Cl)cc12)N1CCC(Cc2ccccc2)C1` (centres unmarked) [Example D75, 3-benzyl-N-(2-(5-chloro-1H-indol-3-yl)ethyl)pyrrolidine-1-carboxamide] is 534 nM; for `O=C(NCCc1c[nH]c2ncc(Cl)cc12)c1cc(Cc2cc(F)ccc2F)on1` [Example D128, N-(2-(5-chloro-1H-pyrrolo[2,3-b]pyridin-3-yl)ethyl)-5-(2,5-difluorobenzyl)isoxazole-3-carboxamide] it is 105 nM; for `Cc1ncoc1C(=O)NCCc1c[nH]c2ccc(Cl)cc12` [Example D112, N-(2-(5-chloro-1H-indol-3-yl)ethyl)-4-methyloxazole-5-carboxamide] it is 1250 nM. `Cc1onc(-c2ccccc2)c1C(=O)NCCc1c[nH]c2ccc(Cl)cc12` [Example D111, N-(2-(5-chloro-1H-indol-3-yl)ethyl)-5-methyl-3-phenylisoxazole-4-carboxamide] came in with an EC50 of 582 nM. `O=C(NCCc1c[nH]c2ccc(Cl)cc12)c1noc(Cc2ccc(Cl)cc2)n1` [Example D172, N-(2-(5-chloro-1H-indol-3-yl)ethyl)-5-(4-chlorobenzyl)-1,2,4-oxadiazole-3-carboxamide] displayed an EC50 of 34 nM.

With `O=C(NCCc1c[nH]c2ccc(Cl)cc12)c1cc(Cc2ccco2)on1` [Example D17, N-(2-(5-chloro-1H-indol-3-yl)ethyl)-5-(furan-2-ylmethyl)isoxazole-3-carboxamide], the EC50 was determined as 22 nM. `CC(C)c1ccc(N2CCC(C(=O)NCCc3c[nH]c4ccc(Cl)cc34)C2=O)cc1` (centres unmarked) [Example D71, N-(2-(5-chloro-1H-indol-3-yl)ethyl)-1-(4-isopropylphenyl)-2-oxopyrrolidine-3-carboxamide] showed an EC50 of 413 nM. The figure for `COc1cccc(N2CCC(C(=O)NCCc3c[nH]c4ccc(Cl)cc34)C2=O)c1` (centres unmarked) [Example D162, N-(2-(5-chloro-1H-indol-3-yl)ethyl)-1-(3-methoxyphenyl)-2-oxopyrrolidine-3-carboxamide] is 233 nM.
